Test results: ChEMBL document CHEMBL1201862, “PubChem BioAssay data set” (2004)
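Five compound concentrations were applied to cells in 96-well plates for 48 hours; endpoints were derived by simple linear interpolation of the resulting dose-response curve. GI50 = concentration required for 50% inhibition of growth.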 Activity calls are given as the source filed them. Rule as the data show it: active = GI50 up to about 1.1 µM and inactive = higher.

Tests used:
Assay in all cases: NCI anticancer screen, dose series, 48 h
[1] = system: 786-0
[2] = system: A549
[3] = system: UO-31
[4] = system: SN12C
[5] = system: OVCAR-8
[6] = system: HCT-116
[7] = system: KM12
[8] = system: COLO 205
[9] = system: NCI/ADR-RES
[10] = system: SNB-75
[11] = system: OVCAR-4
[12] = system: SK-OV-3
[13] = system: RPMI-8226
[14] = system: NCI-H226
[15] = system: SR
[16] = system: OVCAR-3
[17] = system: CAKI-1
[18] = system: Hs-578T
[19] = system: HOP-92
[20] = system: T47D
[21] = system: Malme-3M
[22] = system: DU-145
[23] = system: SK-MEL-2
[24] = system: EKVX
[25] = system: MDA-N
[26] = system: BT-549
[27] = system: MOLT-4
[28] = system: LOX IMVI
[29] = system: UACC-257
[30] = system: A498
[31] = system: UACC-62
[32] = system: MDA-MB-435
[33] = system: HL-60
[34] = system: HOP-62
[35] = system: SF-295
[36] = system: SF-268
[37] = system: K562
[38] = system: NCI-H23
[39] = system: OVCAR-5
[40] = system: TK-10
[41] = system: RXF 393
[42] = system: HCC 2998
[43] = system: SW-620
[44] = system: SF-539
[45] = system: MCF7
[46] = system: M14
[47] = system: SK-MEL-5
[48] = system: MDA-MB-231
[49] = system: HT-29
[50] = system: ACHN
[51] = system: IGROV-1
[52] = system: CCRF-CEM
[53] = system: HCT-15
[54] = system: SNB-19
[55] = system: NCI-H522
[56] = system: SK-MEL-28
[57] = system: NCI-H460
[58] = system: U-251
[59] = system: PC-3

## Cc1ccc(Nc2nc(=O)[nH]c(=O)[nH]2)cc1N=[N+]=[N-]
[1]
  GI50: > 100 µM (inactive)
[2]
  GI50: > 100 µM (inactive)
[3]
  GI50: > 100 µM (inactive)
[4]
  GI50: > 100 µM (inactive)
[5]
  GI50: > 100 µM (inactive)
[6]
  GI50: > 100 µM (inactive)
[7]
  GI50: > 100 µM (inactive)
[8]
  GI50: > 100 µM (inactive)
[9]
  GI50: > 100 µM (inactive)
[10]
  GI50: > 100 µM (inactive)
[11]
  GI50: > 100 µM (inactive)
[12]
  GI50: > 100 µM (inactive)
[13]
  GI50: > 100 µM (inactive)
[14]
  GI50: > 100 µM (inactive)
[15]
  GI50: > 100 µM (inactive)
[16]
  GI50: > 100 µM (inactive)
[17]
  GI50: > 100 µM (inactive)
[18]
  GI50: > 100 µM (inactive)
[19]
  GI50: > 100 µM (inactive)
[20]
  GI50: > 100 µM (inactive)
[21]
  GI50: > 100 µM (inactive)
[22]
  GI50: > 100 µM (inactive)
[23]
  GI50: > 100 µM (inactive)
[24]
  GI50: > 100 µM (inactive)
[25]
  GI50: > 100 µM (inactive)
[26]
  GI50: > 100 µM (inactive)
[27]
  GI50: > 100 µM (inactive)
[28]
  GI50: > 100 µM (inactive)
[29]
  GI50: > 100 µM (inactive)
[30]
  GI50: > 100 µM (inactive)
[31]
  GI50: > 100 µM (inactive)
[32]
  GI50: > 100 µM (inactive)
[33]
  GI50: > 100 µM (inactive)
[34]
  GI50: > 100 µM (inactive)
[35]
  GI50: > 100 µM (inactive)
[36]
  GI50: > 100 µM (inactive)
[37]
  GI50: > 100 µM (inactive)
[38]
  GI50: > 100 µM (inactive)
[39]
  GI50: > 100 µM (inactive)
[40]
  GI50: > 100 µM (inactive)
[41]
  GI50: > 100 µM (inactive)
[42]
  GI50: > 100 µM (inactive)
[43]
  GI50: > 100 µM (inactive)
[44]
  GI50: > 100 µM (inactive)
[45]
  GI50: > 100 µM (inactive)
[46]
  GI50: > 100 µM (inactive)
[47]
  GI50: > 100 µM (inactive)
[48]
  GI50: > 100 µM (inactive)
[49]
  GI50: > 100 µM (inactive)
[50]
  GI50: > 100 µM (inactive)
[51]
  GI50: > 100 µM (inactive)
[52]
  GI50: > 100 µM (inactive)
[53]
  GI50: > 100 µM
[54]
  GI50: > 100 µM (inactive)
[55]
  GI50: > 100 µM (inactive)

## Cc1ccc2c(c1)C(=C(C#N)C#N)CCCS2(=O)=O
[1]
  GI50: > 100 µM (inactive)
[2]
  GI50: > 100 µM (inactive)
[3]
  GI50: > 100 µM (inactive)
[4]
  GI50: > 100 µM (inactive)
[5]
  GI50: > 100 µM (inactive)
[6]
  GI50: > 100 µM (inactive)
[7]
  GI50: > 100 µM (inactive)
[8]
  GI50: > 100 µM (inactive)
[9]
  GI50: > 100 µM (inactive)
[10]
  GI50: > 100 µM (inactive)
[11]
  GI50: > 100 µM (inactive)
[12]
  GI50: > 100 µM (inactive)
[13]
  GI50: > 100 µM (inactive)
[14]
  GI50: > 100 µM (inactive)
[15]
  GI50: > 100 µM (inactive)
[56]
  GI50: > 100 µM (inactive)
[16]
  GI50: > 100 µM (inactive)
[17]
  GI50: > 100 µM (inactive)
[18]
  GI50: > 100 µM (inactive)
[19]
  GI50: > 100 µM (inactive)
[20]
  GI50: > 100 µM (inactive)
[22]
  GI50: > 100 µM (inactive)
[23]
  GI50: > 100 µM (inactive)
[24]
  GI50: > 100 µM (inactive)
[25]
  GI50: > 100 µM (inactive)
[26]
  GI50: > 100 µM (inactive)
[27]
  GI50: > 100 µM (inactive)
[28]
  GI50: > 100 µM (inactive)
[29]
  GI50: > 100 µM (inactive)
[30]
  GI50: > 100 µM (inactive)
[31]
  GI50: > 100 µM (inactive)
[57]
  GI50: > 100 µM (inactive)
[32]
  GI50: > 100 µM (inactive)
[33]
  GI50: > 100 µM (inactive)
[34]
  GI50: > 100 µM (inactive)
[35]
  GI50: > 100 µM (inactive)
[36]
  GI50: > 100 µM (inactive)
[58]
  GI50: > 100 µM (inactive)
[37]
  GI50: > 100 µM (inactive)
[38]
  GI50: > 100 µM (inactive)
[39]
  GI50: > 100 µM (inactive)
[40]
  GI50: > 100 µM (inactive)
[41]
  GI50: > 100 µM (inactive)
[42]
  GI50: > 100 µM (inactive)
[43]
  GI50: > 100 µM (inactive)
[44]
  GI50: > 100 µM (inactive)
[46]
  GI50: > 100 µM (inactive)
[48]
  GI50: > 100 µM (inactive)
[49]
  GI50: > 100 µM (inactive)
[50]
  GI50: > 100 µM (inactive)
[59]
  GI50: > 100 µM (inactive)
[51]
  GI50: > 100 µM (inactive)
[52]
  GI50: > 100 µM (inactive)
[53]
  GI50: > 100 µM
[54]
  GI50: > 100 µM (inactive)
